Results taken from PMC9603181, “RNA-Dependent RNA Polymerase of the Second Human Pegivirus Exhibits a High-Fidelity Feature” (Microbiology Spectrum, 2022).

Key:
Format in all cases: biochemical
[1] = molecular target: T1, HPgV-2 NS5B (HPgV-2 RdRp) (Human hepegivirus, UniProt A0A2L0ARU6); assay: two-step single-nucleotide-incorporation assay, time course, urea-PAGE, Stain-All; settings: T30/pGG, CTP 500 uM as only step 2 substrate, Mg2+/Mn2+, pH 6.5, 30 C
T1 construct: NS5B residues 1-551 (QSYN to GASR) of the genome polyprotein, C-terminal truncation, C-terminal His6 tag kept, pET-26b, E. coli BL21(DE3)

HCV NS5B (HCV RdRp) [2] = molecular target: T2, HCV NS5B (HCV RdRp) (Orthohepacivirus hominis, UniProt A0A140D8J5); assay: as above; settings: T30/pGG, CTP 500 uM as only step 2 substrate, no Mn2+, pH 6.5, 30 C
T2 construct: NS5B residues 1-570 (SMSY to ARFR) of the genome polyprotein, C-terminal truncation, C-terminal His6 tag kept, pET-26b, E. coli BL21(DE3)

HCV NS5B (HCV RdRp) [3] = molecular target: T2, HCV NS5B (HCV RdRp); assay: two-step single-nucleotide-incorporation assay, urea-PAGE, Stain-All; settings: T32 RNA template, pGG primer, pH 6.5, 30 C; sof-TP dose response from 50 uM; UTP analogue, chain terminator

| SMILES | two-step single-nucleotide-incorporation assay, time course, urea-PAGE, Stain-Al [1] | two-step single-nucleotide-incorporation assay, time course, urea-PAGE, Stain-Al (HCV NS5B (HCV RdRp) [2]) | two-step single-nucleotide-incorporation assay, urea-PAGE, Stain-All (HCV NS5B (HCV RdRp) [3]) |
| --- | --- | --- | --- |
| Nc1ccn([C@@H]2O[C@H](COP(=O)(O)OP(=O)(O)OP(=O)(O)O)[C@@H](O)[C@H]2O)c(=O)n1 [CTP] | no significant difference in the synthesis of the correct P10 between HCV and HPgV-2 NS5B | no significant difference in the synthesis of the correct P10 between HCV and HPgV-2 NS5B | – |
| C[C@@]1(F)[C@H](O)[C@@H](COP(=O)(O)OP(=O)(O)OP(=O)(O)O)O[C@H]1n1ccc(=O)[nH]c1=O [PSI-7409] | – | – | a clear P9S band was observed in the presence of HCV NS5B |
